By EC50 is commonly meant the concentration needed to bring the measured effect to its halfway point. Read a low EC50 as higher potency in that assay. Usually Emax stands for the greatest response seen or fitted, relative to the assay's reference.

8 compounds from patent US11472803B2, “7-substituted 1-aryl-naphthyridine-3-carboxylic acid amides and use thereof” (Bayer Aktiengesellschaft, priority 2016, dated 2022) can be followed below.

Structures are written as SMILES.

Experiment [1] addresses T1, human M2 receptor (Homo sapiens, UniProt P08172).
T1 construct: expressed in transfected cells; host or cells: CHO-DUKX (CHO-DUKX-M2-GIRK)
T1 sequence (P08172 1-466): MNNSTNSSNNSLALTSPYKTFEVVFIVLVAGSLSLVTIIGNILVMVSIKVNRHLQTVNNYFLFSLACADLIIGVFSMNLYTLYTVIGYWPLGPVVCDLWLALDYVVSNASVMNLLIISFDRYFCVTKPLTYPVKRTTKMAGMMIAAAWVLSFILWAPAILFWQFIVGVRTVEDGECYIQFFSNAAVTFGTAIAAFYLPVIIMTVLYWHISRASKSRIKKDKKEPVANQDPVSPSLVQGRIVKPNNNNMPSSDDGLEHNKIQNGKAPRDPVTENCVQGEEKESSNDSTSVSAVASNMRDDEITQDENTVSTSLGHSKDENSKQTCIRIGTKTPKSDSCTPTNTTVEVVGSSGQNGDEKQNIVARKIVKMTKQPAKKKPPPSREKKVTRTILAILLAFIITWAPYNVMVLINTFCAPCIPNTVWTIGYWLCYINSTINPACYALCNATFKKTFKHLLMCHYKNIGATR
Nature of the experiment: Functional M2-GIRK1/4 activation test: allosteric potency (EC50) and efficiency at EC20 acetylcholine. It is filed as cell-based. Conditions: CHO-DUKX-M2-GIRK cells; for EC50: voltage-sensitive dye, acetylcholine at EC20, in some cases mean of two or more determinations; for Emax: boosting of the acetylcholine effect at EC20 acetylcholine concentration. Put shortly: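 CHO-DUKX cells stably expressing human M2 and GIRK1/4; membrane potential tracked with voltage-sensitive dye at room temperature. Compound added 50 s before acetylcholine at its EC20, then hyperpolarization read 60 s. EC50 (allosteric potency) and efficiency (boost of EC20 ACh effect) from 4-parameter Hill fit.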

Experiment [2] concerns the target T1, human M2 receptor. Nature of the experiment: Functional M2-GIRK1/4 activation test: positive cooperativity (α factor), shift of acetylcholine dose-response curve. It is filed as cell-based. The note with it: Allosteric EC50 shift of acetylcholine 8-point dose-response curve; CHO-DUKX-M2-GIRK cells; α>1 = positive cooperativity. From the text:
The binding of orthosteric agonists (endogenous ligand: acetylcholine) to the M2 receptor leads to receptor activation or a change in conformation of the receptor in the manner of a shift in equilibrium in favour of the active receptor conformation.
The agonist-induced change in conformation of the M2 receptor results in a Gαi protein activation. […] Under physiological conditions, the result is then a selective efflux of potassium from the cell along the electrochemical gradient. […] The extent of hyperpolarization can therefore be regarded as a measure of the activation of the M2 receptor.
The test cell used is a recombinant CHO-DUKX cell line which has been stably transfected with cDNA coding for the human M2 receptor and with cDNA coding for both GIRK1/4 subunits (CHO-DUKX-M2-GIRK). The transmembrane potential, or the relative changes in the transmembrane potential as a function of substance addition or M2 activation, is determined by means of a voltage-sensitive dye (FLIPR Membrane Potential Assay Kit Blue, Molecular Devices #R8034) and the measurement of cell fluorescence using a proprietary fluorescence imaging instrument.
In accordance with the desired test concentrations, the substances were pre-diluted in loading buffer (see above).
The sowing medium consisted of MEM alpha medium (supplemented with 5% PCS, 2% Glutamax, no genticin).
For the particular measurement, the medium was removed and the cells were laden with the volt-age-sensitive dye for at least 6 min at room temperature (30 μl of loading buffer per 384-well). This was followed, in a first measurement, by the determination of the resting transmembrane potential for a period of 5 sec in 1 sec increments. Thereafter, 10 μl in each case of the test substances diluted in loading buffer are added, followed by a second measurement to determine the transmembrane potential for a period of 50 sec in 1 sec increments.
Finally, the cells are admixed with 10 μl of agonist solution (acetylcholine dissolved in loading buffer). In contrast to the EC50 determination of the test substances (see B-1.1), however, this is not done using one acetylcholine concentration; instead, every concentration of the test substance is combined with an acetylcholine 8-point dose-response curve. […] The M2-mediated GIRK1/4 activation or hyperpolarization is then monitored in a third measurement over a period of 60 sec in 1 sec increments. The shift in the acetylcholine dose-response curve in the presence of increasing concentrations of the test substance is analysed and quantified by means of GraphPad PRISM (Allosteric EC50 shift). […] Positive cooperativity is the hallmark of a positive allosteric modulator. […] The greater the magnitude of the α value, the greater the extent of cooperativity between orthosteric and allosteric.

At human M2 receptor [1], `CC[C@@H](NC(=O)c1cn(-c2c(F)cc(F)cc2F)c2nc(N3C[C@@H](O)[C@H](O)C3)c(F)cc2c1=O)C(F)(F)F` [Example 36, 7-[(3R,4R)-3,4-dihydroxypyrrolidin-1-yl]-6-fluoro-4-oxo-N-[(2R)-1,1,1-trifluorobutan-2-yl]-1-(2,4,6-trifluorophenyl)-1,4-dihydro-1,8-naphthyridine-3-carboxamide] gave an EC50 of 5 nM and an Emax of 92%. The “Cooperativity (alpha factor)” value at human M2 receptor [2] worked out at 51.

On to `CC(C)(C)NC(=O)c1cn(-c2c(F)cc(F)cc2F)c2nc(N3C[C@@H](O)[C@H](O)C3)c(F)cc2c1=O` [Example 90, N-tert-Butyl-7-[(3R,4R)-3,4-dihydroxypyrrolidin-1-yl]-6-fluoro-4-oxo-1-(2,4,6-trifluoro-phenyl)-1,4-dihydro-1,8-naphthyridine-3-carboxamide], for which, on human M2 receptor [1], the EC50 was 18.5 nM and the Emax amounted to 95%. Further, the “Cooperativity (alpha factor)” value at human M2 receptor [2] is 30.

In the case of `CC(C)(NC(=O)c1cn(-c2c(F)cc(F)cc2F)c2nc(N3C[C@@H](O)[C@H](O)C3)c(F)cc2c1=O)C(F)(F)C(F)(F)F` [Example 164, 7-[(3R,4R)-3,4-Dihydroxypyrrolidin-1-yl]-6-fluoro-4-oxo-N-(3,3,4,4,4-pentafluoro-2-methyl-butan-2-yl)-1-(2,4,6-trifluorophenyl)-1,4-dihydro-1,8-naphthyridine-3-carboxamide], at human M2 receptor [1], it took 2 nM to reach a half-maximal effect (EC50) and the Emax is 100%. Moreover, the “Cooperativity (alpha factor)” value at human M2 receptor [2] is on record as 45.

Turning to `CC(C)(C)C(C)(C)NC(=O)c1cn(-c2c(F)cc(F)cc2F)c2nc(N3C[C@@H](O)[C@H](O)C3)c(F)cc2c1=O` [Example 165, 7-[(3R,4R)-3,4-Dihydroxypyrrolidin-1-yl]-6-fluoro-4-oxo-1-(2,4,6-trifluorophenyl)-N-(2,3,3-trimethylbutan-2-yl)-1,4-dihydro-1,8-naphthyridine-3-carboxamide], at human M2 receptor [1], the EC50 turned out to be 2.4 nM and the Emax stood at 100%. For the same compound, at human M2 receptor [2], the “Cooperativity (alpha factor)” value is 48.

At human M2 receptor [1], `CC(NC(=O)c1cn(-c2c(F)cc(F)cc2F)c2nc(N3CC[C@H](O)C3)c(F)cc2c1=O)C(F)(F)C(F)(F)F` (mixture of isomers) [Example 112, 6-Fluoro-7-[(3S)-3-hydroxypyrrolidin-1-yl]-4-oxo-N-[3,3,4,4,4-pentafluorobutan-2-yl]-1-(2,4,6-trifluorophenyl)-1,4-dihydro-1,8-naphthyridine-3-carboxamide] registered an EC50 of 4.25 nM and an Emax of 100%. In addition, the “Cooperativity (alpha factor)” value on human M2 receptor [2] turned out to be 33.

For the compound `CC(C)(CC(F)(F)F)NC(=O)c1cn(-c2c(F)cc(F)cc2F)c2nc(N3C[C@@H](O)[C@H](O)C3)c(F)cc2c1=O` [Example 13, 7-[(3R,4R)-3,4-dihydroxypyrrolidin-1-yl]-6-fluoro-4-oxo-N-(4,4,4-trifluoro-2-methylbutan-2-yl)-1-(2,4,6-trifluorophenyl)-1,4-dihydro-1,8-naphthyridine-3-carboxamide], on human M2 receptor [1], the response was half-maximal at 6.2 nM (EC50) and the Emax was 94%. The “Cooperativity (alpha factor)” value on human M2 receptor [2] is on record as 49.

`CCN(CC(C)O)c1nc2c(cc1F)c(=O)c(C(=O)N[C@@H](C1CC1)C(F)(F)F)cn2-c1c(F)cc(F)cc1F` (mixture of isomers) [Example 65, N-[(1S)-1-Cyclopropyl-2,2,2-trifluoroethyl]-7-[ethyl(2-hydroxypropyl)amino]-6-fluoro-4-oxo-1-(2,4,6-trifluorophenyl)-1,4-dihydro-1,8-naphthyridine-3-carboxamide]: on human M2 receptor [1], the EC50 turned out to be 30 nM and the Emax is 89%. The “Cooperativity (alpha factor)” value at human M2 receptor [2] is 14.

Turning to `CC(C)(NC(=O)c1cn(-c2c(F)cc(F)cc2F)c2nc(N3CC(CO)(CO)C3)c(F)cc2c1=O)C(F)(F)C(F)(F)F` [Example 166, 7-[3,3-Bis(hydroxymethyl)azetidin-1-yl]-6-fluoro-4-oxo-N-(3,3,4,4,4-pentafluoro-2-methyl-butan-2-yl)-1-(2,4,6-trifluorophenyl)-1,4-dihydro-1,8-naphthyridine-3-carboxamide], on human M2 receptor [1], the EC50 worked out at 4.4 nM and the Emax turned out to be 100%. Moreover, the “Cooperativity (alpha factor)” value at human M2 receptor [2] is 31.
